Results from patent publication US9890168B2, “2,4-disubstituted 7H-pyrrolo[2,3-d]pyrimidine derivative, preparation method and medicinal use thereof” (Shanghai Haiyan Pharmaceutical Technology Co., Ltd., priority 2014, dated 2018).
Counter-ions that a name gives are not always drawn.

What was measured:
A431 cells = assay: Cell inhibitory activity by MTT assay, A431 cells; format: cell-based; conditions: 72 hours
Method: (§1) After the first wash, 1.5 mL of trypsin/EDTA was added to digest the adherent cells until the cells detached. Then 3.5 mL of the culture medium was added to terminate the digestion. The digested cell suspension was transferred to a 15 mL centrifuge tube and centrifuged at 1300 rpm for 3 minutes. The supernatant was discarded and the cells were resuspended in fresh medium. The cells were then counted and diluted to the following concentrations: 27,800 cells per milliliter of H1975 cells, 33,300 cells per milliliter of A431 cells and NIH3T3 cells.
(§2) After the drug was added, the cells were incubated in an incubator for 72 hours. 10 μL of 5 mg/ml MTT (Sigma, M5655) solution was added to each well. The 96-well plate was then incubated in a 37° C. and 5% CO2 incubator for 4 h.
(§3) The plate was then centrifuged at 2000 rpm for 5 min. After the supernatant was removed, 150 μl of DMSO was added to each well and the plate was shaken in a shaker until all crystal violet was dissolved.

wild-type EGFR kinase = wild-type EGFR kinase (Homo sapiens (Human), UniProt P00533); assay: z'-lyte assay of inhibition activity on wild-type EGFR kinase; format: biochemical; conditions: 10 μM ATP, 0.8 ng/μL kinase, read-out: EGFR WT (IC50/μM)
Chain of wild-type EGFR kinase (P00533 25-1210): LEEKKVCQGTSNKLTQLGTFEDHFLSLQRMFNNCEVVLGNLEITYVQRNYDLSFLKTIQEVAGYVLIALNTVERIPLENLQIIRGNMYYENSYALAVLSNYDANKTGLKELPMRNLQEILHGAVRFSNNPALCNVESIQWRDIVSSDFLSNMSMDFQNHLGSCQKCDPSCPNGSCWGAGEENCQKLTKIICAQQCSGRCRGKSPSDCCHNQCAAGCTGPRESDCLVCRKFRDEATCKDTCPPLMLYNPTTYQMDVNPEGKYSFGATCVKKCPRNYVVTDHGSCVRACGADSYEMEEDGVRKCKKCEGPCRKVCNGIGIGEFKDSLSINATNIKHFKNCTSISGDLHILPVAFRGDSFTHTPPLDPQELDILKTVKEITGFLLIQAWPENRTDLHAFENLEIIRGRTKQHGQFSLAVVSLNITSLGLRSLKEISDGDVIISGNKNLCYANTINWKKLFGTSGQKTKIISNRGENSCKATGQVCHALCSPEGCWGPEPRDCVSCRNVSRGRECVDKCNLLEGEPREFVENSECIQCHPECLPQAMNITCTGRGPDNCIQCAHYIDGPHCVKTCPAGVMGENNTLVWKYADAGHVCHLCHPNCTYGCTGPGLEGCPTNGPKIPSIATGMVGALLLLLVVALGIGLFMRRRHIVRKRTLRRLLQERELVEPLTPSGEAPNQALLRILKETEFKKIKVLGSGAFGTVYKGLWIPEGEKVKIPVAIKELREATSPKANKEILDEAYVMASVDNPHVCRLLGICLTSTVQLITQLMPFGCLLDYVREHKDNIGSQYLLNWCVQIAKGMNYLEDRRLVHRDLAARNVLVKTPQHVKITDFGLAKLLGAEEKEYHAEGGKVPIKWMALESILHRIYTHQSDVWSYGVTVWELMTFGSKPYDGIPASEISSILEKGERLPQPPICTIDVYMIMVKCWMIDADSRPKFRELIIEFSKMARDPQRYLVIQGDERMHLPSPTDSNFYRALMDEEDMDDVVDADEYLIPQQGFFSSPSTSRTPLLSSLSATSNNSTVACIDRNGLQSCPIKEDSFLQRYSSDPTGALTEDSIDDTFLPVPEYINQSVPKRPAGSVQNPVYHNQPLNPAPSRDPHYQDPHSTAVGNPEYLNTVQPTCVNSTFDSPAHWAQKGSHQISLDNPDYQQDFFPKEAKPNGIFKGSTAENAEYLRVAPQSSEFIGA
Method: All reagents used in the following z′-lyte assay were purchased from Invitrogen.
The working concentrations of each component in 10 μL wild-type EGER kinase reaction system were: 10 μM ATP, 0.8 ng/μL wild-type EGFR kinase, 2 μM Tyr04 substrate (Invitrogen, PV3193). The concentration of DMSO after addition of the compound to be tested was 2 vol %.
10 mM drug stock solution was dissolved at room temperature and diluted to a final concentration of 4-0.002 μM with 8 vol % DMSO solution. […] Then 2.5 μl of ATP was added to initiate the reaction. Wherein, ATP was replaced by the reaction buffer in C1 well, no drug was added to C2 well, and the phosphorylated substrate was added to C3 well according to the instructions. The mixture was allowed to react at 25° C. in a shaker in dark for 60 min, 5 μL of Development Reagent B (invitrogen, diluted with TR-FRET dilution buffer) was added and allowed to react at room temperature in the shaker for 60 minutes.
The inhibition rate was calculated according to the following method (refer to the instructions of Invitronen, PV3193):
1. ER=Coumarin Emission (450 nm)/Fluorescein Emission (520 mn)
3. Inhibition ratio (IR)=(1−(phospholylation ratio of the test compound)/(phosphorylation ratio of C2))×100%
The half-inhibitory concentration IC50 was obtained through fitting calculation by using XLFIT 5.0 software (IDBS, UK).

[1] = target: EGFR phosphorylation in A431 (EGFR wild-type) cells (Homo sapiens (Human), UniProt P00533); assay: Inhibition of EGFR phosphorylation in A431 cells (ELISA); format: cell-based; conditions: 1 h compound treatment, EGF stimulation, read-out: A431 cell (IC50/μM)
Chain of EGFR phosphorylation in A431 (EGFR wild-type) cells (P00533 25-1210): as above
Method: (§4) The reagents used in the following methods, the preparation methods of solutions, the cell treatment and the preparation steps of lysate were carried out according to the instructions of R&D DYC3570, R&D DYC1095E and R&D DYC1095BE.
(2) The A431 cell culture medium was replaced with 90 μl of serum-free DMEM medium and the plate was cultured overnight.
(3) The compound to be tested was diluted according to the drug dilution method in MTT assay. 10 μL of the dilated compound solution or diluted DMSO was added to the corresponding wells of the cell culture plate, and the final concentration of DMSO was 0.5%. The plate was cultured at 37° C. in 5% CO2 for 1 hour. […] The cells without EGF and drugs were used as cell control, and the cells treated with EGF without drugs were used as EGF control.
(4) The medium was removed and then 100 μL, of the cell lysis solution was added. The plate was sealed and placed in a refrigerator at −80° C. overnight.
The assay was conducted according to the instructions given in R&D DYC3570E.
(5) 40 μL of cell lysis butler and 60 μL of cell lysis solution were added and the plate was incubated at 25° C. with shaking for 2 hours.
(§5) (7) The detection antibody was diluted with the detection antibody diluent in the proportion specified in the instructions of the kit. 100 μL of the diluent antibody was added to each well and the plate was incubated at 25° C. with shaking in dark for 1 h.
(9) A reagent and B reagent in TMB substrate (R&D DY999) were mixed in 1:1. 100 μL mixture was added to each well and incubated in dark at 25° C. with shaking tor 20 min.
(11) The plate was read with a microplate reader (Thermo Multiskan K3). OD 450 values and OD570 values of the cell control, blank control, and drug treatment wells were measured. ODEGF, ODdrug and ODcell were obtained by subtracting the corresponding OD570 value from the OD 450 value of the same well.
3.3 Data Analysis Inhibition rate (%)=100%×(ODEGF−ODdrug)/(ODEGF−ODcell)

H1975 cells = assay: Cell inhibitory activity by MTT assay, H1975 cells; format: cell-based; conditions: for IC50: cell growth, MTT assay, 72 hours; for Selective inhibitory activity against cell growth [IC50 (A431 cell)/IC50 (H1975 cell)]: ratio of MTT IC50 values
Method: as §1, §2, §3

[2] = target: EGFR phosphorylation in H1975 (EGFR T790M mutant) cells (Homo sapiens (Human), UniProt P00533, L858R/T790M); assay: Inhibition of EGFR phosphorylation in H1975 cells (ELISA); format: cell-based; conditions: for IC50: EGFR phosphorylation, ELISA, 1 h compound treatment, read-out: H1975 cell (IC50/μM); for Selective inhibitory activity against targets at the cell level [IC50 (A431 cell)/IC50 (H1975 cell)]: ratio of ELISA IC50 values
Chain of EGFR phosphorylation in H1975 (EGFR T790M mutant) cells (P00533 25-1210 T790M/L858R): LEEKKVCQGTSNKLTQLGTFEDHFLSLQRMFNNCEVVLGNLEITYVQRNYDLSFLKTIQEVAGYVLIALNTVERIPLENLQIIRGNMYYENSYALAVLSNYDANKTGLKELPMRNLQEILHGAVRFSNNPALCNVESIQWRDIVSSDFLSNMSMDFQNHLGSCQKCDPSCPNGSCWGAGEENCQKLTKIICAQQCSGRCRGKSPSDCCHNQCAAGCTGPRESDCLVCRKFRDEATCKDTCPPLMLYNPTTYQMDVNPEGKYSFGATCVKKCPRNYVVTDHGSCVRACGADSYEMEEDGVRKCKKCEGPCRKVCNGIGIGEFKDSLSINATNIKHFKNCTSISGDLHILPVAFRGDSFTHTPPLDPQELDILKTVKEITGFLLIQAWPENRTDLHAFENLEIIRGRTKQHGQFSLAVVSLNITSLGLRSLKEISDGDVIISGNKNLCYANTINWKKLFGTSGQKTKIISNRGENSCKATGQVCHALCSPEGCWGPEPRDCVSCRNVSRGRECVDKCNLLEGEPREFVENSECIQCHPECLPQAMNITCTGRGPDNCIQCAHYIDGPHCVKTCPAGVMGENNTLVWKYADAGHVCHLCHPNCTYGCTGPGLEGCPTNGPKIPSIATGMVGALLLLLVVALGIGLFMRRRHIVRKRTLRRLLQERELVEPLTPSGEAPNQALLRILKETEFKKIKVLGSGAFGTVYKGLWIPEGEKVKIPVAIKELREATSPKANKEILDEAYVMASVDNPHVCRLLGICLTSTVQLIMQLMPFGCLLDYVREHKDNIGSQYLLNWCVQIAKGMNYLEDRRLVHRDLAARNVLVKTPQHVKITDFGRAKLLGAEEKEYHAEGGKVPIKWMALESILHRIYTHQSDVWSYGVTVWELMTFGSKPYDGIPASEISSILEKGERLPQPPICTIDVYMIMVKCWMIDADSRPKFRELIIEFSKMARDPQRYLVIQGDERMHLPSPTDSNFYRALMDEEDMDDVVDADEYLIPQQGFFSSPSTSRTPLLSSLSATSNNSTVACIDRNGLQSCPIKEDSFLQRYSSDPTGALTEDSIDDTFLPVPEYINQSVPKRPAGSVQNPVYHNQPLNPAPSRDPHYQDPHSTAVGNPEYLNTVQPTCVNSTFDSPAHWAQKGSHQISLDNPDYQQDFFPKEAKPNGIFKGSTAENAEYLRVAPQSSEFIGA
Method: as §4
(2) The compounds to be tested were diluted in accordance with the drug dilution method in the MTT assay. 10 μL of the diluted compound solution or diluted DMSO was added to the corresponding wells of the cell culture plate, and the final concentration of DMSO was 0.5% (V/V). The plate was cultured at 37° C. in 5% (v/v) CO2 for 1 h. The cell culture system treated with DMSO alone was used as cell control.
(3) The medium was removed and then 100 μL of cell lysis solution was added. The plate was sealed and placed in a refrigerator at −80° C. overnight. The cell lysis buffer was used as blank control.
The assay was conducted according to the instructions given in R&D DYC1095E or R&D DYC1095BE.
(5) 40 μL of cell lysis buffer and 60 μL of cell lysis solution were added and the plate was incubated at 25° C. with shaking for 2 hours.
as §5
(9) A reagent and B reagent in the TMB substrate (R&D DY999) were mixed in 1:1. 100 μL of the mixture was added to each well and incubated in dark at 25° C. with shaking for 20 min.
(11) The plate was read with a microplate reader (Thermo Multiskan K3). OD 450 values and OD570 values of the cell control, blank control, and drug treatment wells were measured. ODcell, ODblank and ODdrug treatment were obtained by subtracting the corresponding OD570 value from the OD 450 value of the same well.
2.3 Data Analysis Inhibition rate (%)=100%×(ODcell−ODdrug treatment)/(ODcell−ODblank)

NIH3T3 cells = assay: Toxicity test on NIH3T3 cells by MTT assay; format: cell-based
Method: as §1, §2, §3

[3] = test system: T790M mutant cell line H1975; conditions: background statement; cited from earlier work
[4] = Homo sapiens, A-431, cell growth

| SMILES | IC50 (A431 cells; cell growth) [µM] | IC50 (wild-type EGFR kinase) [µM] | IC50 [1] [µM] | IC50 (H1975 cells) [µM] | Selective inhibitory activity against cell growth [IC50 (A431 cell)/IC50 (H1975 cell)] (H1975 cells) | IC50 [2] [µM] | Selective inhibitory activity against targets at the cell level [IC50 (A431 cell)/IC50 (H1975 cell)] [2] | IC50 (NIH3T3 cells; 72 hours) [µM] | IC50 (A431 cells; [4]) [µM] | IC50 (H1975 cells; Homo sapiens, NCI-H1975) [µM] | IC50 (NIH3T3 cells; Mus musculus, NIH3T3, 72 hours) [µM] | activity in the T790M mutant cell line H1975 [3] |
| --- | --- | --- | --- | --- | --- | --- | --- | --- | --- | --- | --- | --- |
| C=CC(=O)Nc1cc(Nc2nc(OC3CN(S(C)(=O)=O)C3)c3cc[nH]c3n2)c(OC)cc1N(C)CCN(C)C [Compound 3, N-(2-((2-(dimethylamino)ethyl)(methyl)amino)-4-methoxy-5-(4-(1-(methylsulfonyl)azetidin-3-yloxy)-7H-pyrrolo[2,3-d]pyrimidin-2-ylamino)phenyl)acryl amide] | 2.93 | 0.088 | 0.86 | 0.029 | 101 | 0.032 | 26.9 | > 10 |  |  |  |  |
| C=CC(=O)Nc1cc(Nc2nc(-c3ccccc3)c3cc[nH]c3n2)c(OC)cc1N(C)CCN(C)C [Compound 7, N-(2-((2-(dimethylamino)ethyl)(methyl)amino)-4-methoxy-5-(4-phenyl-7H-pyrrolo[2,3-d]pyrimidin-2-ylamino)phenyl)acrylamide] |  | 0.315 | 1.87 |  | 7.5 | 0.204 | 9.2 |  | 1.69 | 0.225 | 2.42 |  |
| C=CC(=O)Nc1cc(Nc2nc(-c3cnn(C)c3)c3cc[nH]c3n2)c(OC)cc1N1CCN(C)CC1 [Compound 12, N-(4-methoxy-5-(4-(1-methyl-1H-pyrazol-4-yl)-7H-pyrrolo[2,3-d]pyrimidin-2-ylamino)-2-(4-methylpiperazin-1-yl)phenyl)acrylamide] |  | > 1 |  |  |  |  |  |  |  |  |  |  |
| C=CC(=O)Nc1cc(Nc2nc(-c3cnn(C)c3)c3cc[nH]c3n2)c(OC)cc1N1CCC(N(C)C)CC1 [Compound 9, N-(2-(4-(dimethylamino)piperidin-1-yl)-4-methoxy-5-(4-(1-methyl-1H-pyrazol-4-yl)-7H-pyrrolo[2,3-D]pyrimidin-2-ylamino)phenyl)acrylamide] |  | > 1 | > 10 |  | 14.5 | 0.384 | >26 |  | 4.34 | 0.3 | > 10 |  |
| C=CC(=O)Nc1cc(Nc2nc(-c3cnn(C)c3)c3cc[nH]c3n2)c(OC)cc1OCCN(C)C [Compound 10, N-(2-(2-(dimethylamino)etboxy)-4-methoxy-5-(4-(1-methyl-1H-pyrazol-4-yl)-7H-pyrrolo[2,3-d]pyrimidin-2-ylamino)phenyl)acrylamide] |  |  | 8.98 |  | 34 | 0.166 | 54.1 |  | 3.8 | 0.112 | > 10 |  |
| CN(C)C/C=C/C(=O)Nc1cc2c(Nc3ccc(F)c(Cl)c3)ncnc2cc1O[C@H]1CCOC1 [BIBW2992, reference compound] |  |  |  |  |  |  |  |  |  | 0.088 | 2.75 |  |
| C=CC(=O)Nc1cc(Nc2nc(-c3cnn(C)c3)c3cc[nH]c3n2)c(OC)cc1N1CC(N(C)C)C1 [Compound 11, N-(2-(3-(dimethylamino)azetidin-1-yl)-4-methoxy-5-(4-(1-methyl-1H-pyrazol-4-yl)-7H-pyrrolo[2,3-d]pyrimidin-2-ylamino)phenyl)acrylamide Formate] |  | > 1 |  |  |  |  |  |  |  |  |  |  |
| COc1cc2ncnc(Nc3ccc(F)c(Cl)c3)c2cc1OCCCN1CCOCC1 [gefitinib] |  |  |  |  |  |  |  |  |  |  |  | greater than 3 uM |
| C=CC(=O)Nc1cc(Nc2nc(-c3cnn(C)c3)c3c(Cl)c[nH]c3n2)c(OC)cc1N1CCC(N(C)C)CC1 [Compound 13, N-(5-(5-chloro-4-(1-methyl-1H-pyrazol-4-yl)-7H-pyrrolo[2,3-d]pyrimidin-2-ylamino)-2-(4(dimethylamino)piperidin-1-yl)-4-methoxyphenyl)acrylamide] |  |  |  |  |  |  |  |  | 3.04 | 0.531 | > 10 |  |
| C=CC(=O)Nc1cc(Nc2nc(N3CCOCC3)c3cc[nH]c3n2)c(OC)cc1N(C)CCN(C)C [Compound 2, N-(2-((2-(dimethylamino)ethyl)(methyl)amino)-4-methoxy-5-(4-morpholino-7H-pyrrolo[2,3-d]pyrimidin-2-ylamino)phenyl)acrylamide] |  | > 1 | > 10 |  | 28 | 0.322 | 31 |  | 4.01 | 0.143 | > 10 |  |
| C=CC(=O)Nc1cc(Nc2nc(-c3cccnc3)c3cc[nH]c3n2)c(OC)cc1N(C)CCN(C)C [Compound 6, N-(2-((2-(dimethylamino)ethyl)(methyl)amino)-4-methoxy-5-(4-(pyridin-3-yl)-7H-pyrrolo[2,3-d]pyrimidin-2ylamino)phenyl)acrylamide] |  | 0.347 | 1.67 |  | 22.8 | 0.096 | 17.4 |  | 1.8 | 0.079 | 5.1 |  |
| C=CC(=O)Nc1cc(Nc2nc(-c3cnc4c(ccn4C)c3)c3cc[nH]c3n2)c(OC)cc1N(C)CCN(C)C [Compound 4, N-(2-((2-(dimethylamino)ethyl)(methyl)amino)-4-methoxy-5-(4-(1-methyl-1H-pyrrolo[2,3-b]pyridin-5-yl)-7H-pyrrolo[2,3-d]pyrimidin-2-ylamino)phenyl)acrylamide] |  | 0.039 | 0.254 |  | 38.7 | 0.015 | 17 |  | 1.12 | 0.029 | 2.09 |  |
| C#Cc1cccc(Nc2ncnc3cc(OCCOC)c(OCCOC)cc23)c1 [erlotinib] |  |  |  |  |  |  |  |  |  |  |  | greater than 3 uM |
| C=CC(=O)Nc1cc(Nc2nc(-c3cn(C)c4ccccc34)c3cc[nH]c3n2)c(OC)cc1N(C)CCN(C)C [Compound 5, N-(2-((2-(dimethylamino)ethyl)(methyl)amino)-4-methoxy-5-(4-(1-methyl-1H-indol-3-yl)-7H-pyrrolo[2,3-d]pyrimidin-2-ylamino)phenyl)acrylamide] |  | 0.015 | 0.119 |  | 34.2 | 0.016 | 7.4 |  | 0.308 | 0.009 | 2.63 |  |
| C=CC(=O)Nc1cc(Nc2nc(-c3cnn(C)c3)c3cc[nH]c3n2)c(OC)cc1N(C)CCN(C)C [Compound 1, N-(2-((2-(dimethylamino)ethyl)(methyl)amino)-4-methoxy-5-(4(1-methyl-1H-pyrazol-4-yl)-7H-pyrrolo[2,3-d]pyrimidn-2-ylamino)phenyl)acrylamide] |  | 0.393 | 3.67 |  | 36.3 | 0.112 | 32.7 |  | 1.56 | 0.043 | > 10 |  |
